In patent publication US10544147B2, “Purine inhibitors of human phosphatidylinositol 3-kinase delta” (MERCK SHARP & DOHME CORP., priority 2016, dated 2020):
pIC50: −log10 of the molar value.

Legend:
[1] = molecular target: PI3Kdelta (Homo sapiens (Human), UniProt O00329); test: HTRF PI3K biochemical assay, delta isoform; conditions: 0.3 nM enzyme, 100 uM ATP, 50 uM PIP2; form screened (neutral or TFA salt)
[2] = molecular target: PI3Kalpha (Homo sapiens (Human), UniProt P42336); test: HTRF PI3K biochemical assay, alpha isoform (selectivity versus delta); conditions: ratio PI3K-alpha IC50 value/PI3K-delta IC50 value
Sequence of PI3Kalpha (P42336 whole entry, canonical isoform): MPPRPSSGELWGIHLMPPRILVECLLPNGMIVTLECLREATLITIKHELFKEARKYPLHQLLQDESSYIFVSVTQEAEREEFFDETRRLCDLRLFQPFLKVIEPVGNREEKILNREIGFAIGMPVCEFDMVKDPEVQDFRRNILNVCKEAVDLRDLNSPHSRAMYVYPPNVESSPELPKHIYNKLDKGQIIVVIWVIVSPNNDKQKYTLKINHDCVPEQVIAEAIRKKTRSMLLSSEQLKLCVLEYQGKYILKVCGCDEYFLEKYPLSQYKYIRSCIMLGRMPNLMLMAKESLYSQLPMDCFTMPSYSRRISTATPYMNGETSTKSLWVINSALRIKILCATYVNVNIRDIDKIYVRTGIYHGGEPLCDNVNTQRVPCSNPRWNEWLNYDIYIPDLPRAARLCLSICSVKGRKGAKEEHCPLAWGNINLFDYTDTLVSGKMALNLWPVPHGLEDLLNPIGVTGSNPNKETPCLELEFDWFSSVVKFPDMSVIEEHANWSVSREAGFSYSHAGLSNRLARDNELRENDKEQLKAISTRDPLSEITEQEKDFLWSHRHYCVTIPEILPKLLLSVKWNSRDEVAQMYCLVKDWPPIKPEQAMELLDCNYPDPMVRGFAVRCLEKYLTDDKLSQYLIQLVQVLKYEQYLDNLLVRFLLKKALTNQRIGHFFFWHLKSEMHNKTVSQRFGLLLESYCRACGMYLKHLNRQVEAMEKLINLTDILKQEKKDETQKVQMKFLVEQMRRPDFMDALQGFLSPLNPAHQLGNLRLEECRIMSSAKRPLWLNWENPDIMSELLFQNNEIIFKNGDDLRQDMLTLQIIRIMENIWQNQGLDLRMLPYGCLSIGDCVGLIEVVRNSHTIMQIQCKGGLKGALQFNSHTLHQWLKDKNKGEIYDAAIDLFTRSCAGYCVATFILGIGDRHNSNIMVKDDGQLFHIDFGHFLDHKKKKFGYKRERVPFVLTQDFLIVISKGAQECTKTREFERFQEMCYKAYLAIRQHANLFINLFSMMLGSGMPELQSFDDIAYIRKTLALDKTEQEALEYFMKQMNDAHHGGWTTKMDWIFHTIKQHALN
Sequence of PI3Kalpha (P27986 whole entry partner, canonical isoform): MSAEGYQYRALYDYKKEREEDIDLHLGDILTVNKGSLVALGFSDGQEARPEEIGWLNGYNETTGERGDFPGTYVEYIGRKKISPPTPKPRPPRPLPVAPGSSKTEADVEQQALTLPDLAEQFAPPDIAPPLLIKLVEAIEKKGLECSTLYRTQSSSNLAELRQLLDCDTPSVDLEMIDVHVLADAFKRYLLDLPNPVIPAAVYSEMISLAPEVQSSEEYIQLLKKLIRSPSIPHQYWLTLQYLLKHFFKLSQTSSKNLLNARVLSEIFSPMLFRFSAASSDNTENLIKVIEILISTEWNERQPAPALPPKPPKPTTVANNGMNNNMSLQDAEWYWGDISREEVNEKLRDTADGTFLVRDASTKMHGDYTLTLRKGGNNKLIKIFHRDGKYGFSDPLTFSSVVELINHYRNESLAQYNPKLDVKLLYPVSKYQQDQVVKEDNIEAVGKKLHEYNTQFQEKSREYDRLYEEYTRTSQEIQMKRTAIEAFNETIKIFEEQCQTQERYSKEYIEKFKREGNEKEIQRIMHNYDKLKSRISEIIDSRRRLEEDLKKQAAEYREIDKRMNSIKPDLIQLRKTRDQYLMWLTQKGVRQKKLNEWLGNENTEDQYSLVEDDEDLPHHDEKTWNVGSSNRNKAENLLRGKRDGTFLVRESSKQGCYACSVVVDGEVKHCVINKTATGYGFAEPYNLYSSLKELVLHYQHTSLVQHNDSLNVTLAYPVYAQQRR

Sequence of PI3Kdelta (O00329 whole entry, canonical isoform): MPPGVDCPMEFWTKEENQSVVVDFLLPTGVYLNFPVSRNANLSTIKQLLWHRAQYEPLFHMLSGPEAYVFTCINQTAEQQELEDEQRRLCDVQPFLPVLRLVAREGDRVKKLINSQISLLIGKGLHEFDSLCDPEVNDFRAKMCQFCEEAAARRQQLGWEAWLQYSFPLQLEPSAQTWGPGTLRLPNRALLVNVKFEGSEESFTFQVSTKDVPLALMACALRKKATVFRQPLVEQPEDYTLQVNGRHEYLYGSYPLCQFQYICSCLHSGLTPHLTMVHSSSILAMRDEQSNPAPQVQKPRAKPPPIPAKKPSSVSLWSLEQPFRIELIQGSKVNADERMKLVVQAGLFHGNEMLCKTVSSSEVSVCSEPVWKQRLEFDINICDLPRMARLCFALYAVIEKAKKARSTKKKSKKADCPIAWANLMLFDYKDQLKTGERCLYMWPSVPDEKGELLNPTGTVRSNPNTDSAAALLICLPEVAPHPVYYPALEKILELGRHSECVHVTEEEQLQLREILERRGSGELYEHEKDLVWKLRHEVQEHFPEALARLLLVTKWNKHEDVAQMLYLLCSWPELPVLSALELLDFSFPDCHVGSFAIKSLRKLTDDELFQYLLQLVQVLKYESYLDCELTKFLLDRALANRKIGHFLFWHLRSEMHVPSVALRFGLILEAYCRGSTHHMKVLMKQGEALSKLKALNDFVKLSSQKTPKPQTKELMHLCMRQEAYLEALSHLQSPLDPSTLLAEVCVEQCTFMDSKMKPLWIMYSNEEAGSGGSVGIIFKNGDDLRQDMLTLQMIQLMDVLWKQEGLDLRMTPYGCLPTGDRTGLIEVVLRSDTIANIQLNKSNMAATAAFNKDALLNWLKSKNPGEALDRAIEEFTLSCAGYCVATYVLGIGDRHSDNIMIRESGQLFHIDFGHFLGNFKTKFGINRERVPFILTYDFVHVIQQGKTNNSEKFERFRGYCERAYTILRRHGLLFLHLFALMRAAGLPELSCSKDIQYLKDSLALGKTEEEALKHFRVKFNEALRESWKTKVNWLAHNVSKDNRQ
Sequence of PI3Kdelta (P27986 whole entry partner, canonical isoform): as the sequence (P27986 whole entry partner, canonical isoform) above

SMILES | pIC50 [1] | Relative Selectivity versus PI3Kalpha [2]
CCn1c(-c2cnc(C)nc2)nc2c(-c3ccc4c(c3)C(C)(N3C[C@@H](F)[C@H](F)C3)C(=O)N4)ncnc21 (single isomer, unassigned) [Compound 2-61, 3-(R or S)-((3R,4R)-3,4-difluoropyrrolidin-1-yl)-5-(9-ethyl-8-(2-methylpyrimidin-5-yl)-9H-purin-6-yl)-3-methylindolin-2-one] | 7.46 | >10
CCn1c(-c2cnc(C)nc2)nc2c(-c3ccc4c(c3)C(C)(CC(C)(C)O)C(=O)N4)ncnc21 (single isomer, unassigned) [Compound 1-40, 5-(9-Ethyl-8-(2-methylpyrimidin-5-yl)-9H-purin-6-yl)-3-(2-hydroxy-2-methylpropyl)-3-methylindolin-2-one] | 6.85 | >10
CCn1c(-c2cnc(C)nc2)nc2c(-c3ccc4c(c3)C(C)(NCC3(C#N)CCC3)C(=O)N4)ncnc21 (racemic) [Compound 2-19, (R and S)-1-[({5-[9-ethyl-8-(2-methylpyrimidin-5-yl)-9H-purin-6-yl]-3-methyl-2-oxo-2,3-dihydro-1H-indol-3-yl}amino)methyl]cyclobutane-carbonitrile] | 7.66 | >10
CCn1c(-c2cnc(C)nc2)nc2c(-c3ccc4c(c3)C(C)(NCC(C)C)C(=O)N4)ncnc21 (single isomer, unassigned) [Compound 2-65, (R or S)-5-(9-ethyl-8-(2-methylpyrimidin-5-yl)-9H-purin-6-yl)-3-(isobutylamino)-3-methylindolin-2-one] | 7.10 | >10
Cc1ncc(-c2nc3c(-c4cnc5c(c4)C(C)(CC(C)C)C(=O)N5)ncnc3n2C)cn1 (single isomer, unassigned) [Compound 1-27, (R or S)-3-isobutyl-3-methyl-5-(9-methyl-8-(2-methylpyrimidin-5-yl)-9H-purin-6-yl)-1,3-dihydro-2H-pyrrolo[2,3-b]pyridin-2-one] | 8.30 | >10
CCn1c(-c2cnc(C)nc2)nc2c(-c3cnc4c(c3)C(C)(CC(C)C)C(=O)N4)ncnc21 (single isomer, unassigned) [Compound 1-13, 5-(9-ethyl-8-(2-methylpyrimidin-5-yl)-9H-purin-6-yl)-3-isobutyl-3-methyl-1,3-dihydro-2H-pyrrolo[2,3-b]pyridin-2-one] | 6.43 | >10
CCn1c(-c2cnc(C)nc2)nc2c(-c3ccc4c(c3)C(C)(Cc3ccccc3)C(=O)N4C)ncnc21 (single isomer, unassigned) [Compound 1-21, 3-Benzyl-5-(9-ethyl-8-(2-methylpyrimidin-5-yl)-9H-purin-6-yl)-1,3-dimethylindolin-2-one] | 8.40 | >10
CCn1c(-c2cnc(C)nc2)nc2c(-c3ccc4c(c3)C(C)(N[C@H]3C[C@H](OC)C3)C(=O)N4)ncnc21 (single isomer, unassigned) [Compound 2-82, 5-(9-ethyl-8-(2-methylpyrimidin-5-yl)-9H-purin-6-yl)-3-(((1R,3R)-3-methoxycyclobutyl)amino)-3(R or S)-methylindolin-2-one] | 5.80 | 8
CCn1c(-c2cnc(C)nc2)nc2c(-c3ccc4c(c3)C(C)(NCC3(F)COC3)C(=O)N4)ncnc21 (single isomer, unassigned) [Compound 2-71, (R or S)-5-(9-ethyl-8-(2-methylpyrimidin-5-yl)-9H-purin-6-yl)-3-(((3-fluorooxetan-3-yl)methyl)amino)-3-methylindolin-2-one] | 6.66 | >10
CCn1c(-c2cnc(C)nc2)nc2c(-c3ccc4c(c3)C(C)(N3CCOCC35CCC5)C(=O)N4)ncnc21 (racemic) [Compound 2-23, (R and S)-5-[9-ethyl-8-(2-methylpyrimidin-5-yl)-9H-purin-6-yl]-3-methyl-3-(8-oxa-5-azaspiro[3.5]non-5-yl)-1,3-dihydro-2H-indol-2-one] | 8.15 | >10
CCn1c(-c2cnc(C)nc2)nc2c(-c3ccc4c(c3)C(C)(N[C@H](C)C3CC3)C(=O)N4)ncnc21 (mixture of isomers) [Compound 2-11, 3-{[(1R)-1-cyclopropylethyl]amino}-5-[9-ethyl-8-(2-methylpyrimidin-5-yl)-9H-purin-6-yl]-3(R and S)-methyl-1,3-dihydro-2H-indol-2-one] | 7.82 | >10
CCn1c(-c2cnc(C)nc2)nc2c(-c3cnc4c(c3)C(C)(CC(C)C)C(=O)N4)ncnc21 (single isomer, unassigned) [Compound 1-12, 5-(9-ethyl-8-(2-methylpyrimidin-5-yl)-9H-purin-6-yl)-3-isobutyl-3-methyl-1,3-dihydro-2H-pyrrolo[2,3-b]pyridin-2-one] | 8.05 | >10
CCn1c(-c2cnc(C)nc2)nc2c(-c3ccc4c(c3)C(C)(N3CC5(CCO5)C3)C(=O)N4)ncnc21 (single isomer, unassigned) [Compound 2-8, (R or S)-5-[9-ethyl-8-(2-methylpyrimidin-5-yl)-9H-purin-6-yl]-3-methyl-3-(1-oxa-6-azaspiro[3.3]hept-6-yl)-1,3-dihydro-2H-indol-2-one] | 6.89 | >10
CCn1ncc(-c2nc3c(-c4ccc5c(c4)C(C)(CC4CC4)C(=O)N5)ncnc3n2CC)c1C (single isomer, unassigned) [Compound 1-25, 3-(Cyclopropylmethyl)-5-(9-ethyl-8-(1-ethyl-5-methyl-1H-pyrazol-4-yl)-9H-purin-6-yl)-3-methylindolin-2-one] | 8.40 | >10

Second part, the compound after the results:

pIC50 [1] | Relative Selectivity versus PI3Kalpha [2] | SMILES
8.22 | >10 | CCn1c(-c2cnc(C)nc2)nc2c(-c3ccc4c(c3)C3(CCCN3S(C)(=O)=O)C(=O)N4C)ncnc21 (single isomer, unassigned) [Compound 3-23, (R or S)-5-(9-ethyl-8-(2-methylpyrimidin-5-yl)-9H-purin-6-yl)-1-methyl-1′-(methylsulfonyl)spiro[indoline-3,2′-pyrrolidin]-2-one]
7.66 | >10 | CCn1c(-c2cnc(C)nc2)nc2c(-c3ccc4c(c3)C(Cc3ccccc3)NC4=O)ncnc21 (single isomer, unassigned) [Compound 4-9, (R or S)-3-benzyl-5-[9-ethyl-8-(2-methylpyrimidin-5-yl)-9H-purin-6-yl]-2,3-dihydro-1H-isoindol-1-one]
7.85 | >10 | CCn1c(-c2cnc(C)nc2)nc2c(-c3ccc4c(c3)C(C)(Cc3ccccc3)N(C)C4=O)ncnc21 (single isomer, unassigned) [Compound 4-12, (R or S)-3-benzyl-5-[9-ethyl-8-(2-methylpyrimidin-5-yl)-9H-purin-6-yl]-2,3-dimethyl-2,3-dihydro-1H-isoindol-1-one]
8.40 | >10 | CCn1c(-c2cnc(C)nc2)nc2c(-c3ccc4c(c3)C(C)(CC(C)C)OC(=O)N4)ncnc21 (single isomer, unassigned) [Compound 4-4, (R or S)-6-[9-ethyl-8-(2-methylpyrimidin-5-yl)-9H-purin-6-yl]-4-methyl-4-(2-methylpropyl)-1,4-dihydro-2H-3,1-benzoxazin-2-one]
7.26 | >10 | CCn1c(-c2cnc(C)nc2)nc2c(-c3ccc4c(c3)C(C)(CC(C)C)NS4(=O)=O)ncnc21 (single isomer, unassigned) [Compound 4-6, (R or S)-9-ethyl-6-[3-methyl-3-(2-methylpropyl)-1,1-dioxido-2,3-dihydro-1,2-benzisothiazol-5-yl]-8-(2-methylpyrimidin-5-yl)-9H-purine]
7.49 | >10 | CCn1c(-c2cnc(C)nc2)nc2c(-c3ccc4c(c3)C3(CCCN3S(C)(=O)=O)C(=O)N4C)ncnc21 (single isomer, unassigned) [Compound 3-24, (R or S)-5-(9-ethyl-8-(2-methylpyrimidin-5-yl)-9H-purin-6-yl)-1-methyl-1′-(methylsulfonyl)spiro[indoline-3,2′-pyrrolidin]-2-one]
7.46 | >10 | CCn1c(-c2cnc(C)nc2)nc2c(-c3ccc4c(c3)C(Cc3ccccc3)OC(=O)N4)ncnc21 (single isomer, unassigned) [Compound 4-2, (R or S)-4-benzyl-6-[9-ethyl-8-(2-methylpyrimidin-5-yl)-9H-purin-6-yl]-1,4-dihydro-2H-3,1-benzoxazin-2-one]
8.30 | >10 | CCn1c(-c2cnc(C)nc2)nc2c(-c3ccc4oc(=O)n(C(C)C5CC5)c4c3)ncnc21 (single isomer, unassigned) [Compound 5-6, (R or S)-3-(1-cyclopropylethyl)-5-[9-ethyl-8-(2-methylpyrimidin-5-yl)-9H-purin-6-yl]-1,3-benzoxazol-2(3H)-one]
7.54 | >10 | CCN1CCCC12C(=O)Nc1ccc(-c3ncnc4c3nc(-c3cnc(C)nc3)n4CC)cc12 (single isomer, unassigned) [Compound 3-26, (R or S)-1′-ethyl-5-(9-ethyl-8-(2-methylpyrimidin-5-yl)-9H-purin-6-yl)spiro[indoline-3,2′-pyrrolidin]-2-one]
7.01 | 2 | CCn1c(-c2cnc(C)nc2)nc2c(-c3ccc4c(c3)C(Cc3ccccc3)OC(=O)N4)ncnc21 (single isomer, unassigned) [Compound 4-1, (R or S)-4-benzyl-6-[9-ethyl-8-(2-methylpyrimidin-5-yl)-9H-purin-6-yl]-1,4-dihydro-2H-3,1-benzoxazin-2-one]
6.82 | >10 | CCn1c(-c2cnc(C)nc2)nc2c(-c3ccc4oc(=O)n(C5CCOCC5)c4c3)ncnc21 [Compound 5-9, 5-(9-ethyl-8-(2-methylpyrimidin-5-yl)-9H-purin-6-yl)-3-(tetrahydro-2H-pyran-4-yl)benzo[d]oxazol-2(3H)-one]
